Earlier results in patent US20120276003A1, “COMPOUND CONTAINING AN OXYGEN-15, PREPARATION AND USE THEREOF, AND COMPOSITION COMPRISING THEREOF” (Beijing Top Grade Medical Equipment Co., Ltd., priority 2011, published 2012).

Conditions: perfusion imaging agent; stated 'academically'

[15OH2] [^15O-water]
one-time through uptake rate: ~100%
